According to patent publication EP2582674B1 (Cymabay Therapeutics, Inc., priority 2010, dated 2011):

What follows are compounds tested against T1, human GPR120 (Homo sapiens, UniProt Q5NUL3) (assay: Intracellular Ca2+ assay in human GPR120 stable cell line (FLIPR Calcium 4 dye, Flexstation)). Conditions: HEK293, % activity at 2.5 µM compared to the maximal activity of the compound of Example 25 at 2.5 µM (=100%); HEK293 cells co-expressing Gqi5; read-out: % Activity (Ex. 25 Reference Compound).
T1 construct: host or cells: HEK293 cells co-expressing Gqi5
T1 sequence (Q5NUL3 1-361): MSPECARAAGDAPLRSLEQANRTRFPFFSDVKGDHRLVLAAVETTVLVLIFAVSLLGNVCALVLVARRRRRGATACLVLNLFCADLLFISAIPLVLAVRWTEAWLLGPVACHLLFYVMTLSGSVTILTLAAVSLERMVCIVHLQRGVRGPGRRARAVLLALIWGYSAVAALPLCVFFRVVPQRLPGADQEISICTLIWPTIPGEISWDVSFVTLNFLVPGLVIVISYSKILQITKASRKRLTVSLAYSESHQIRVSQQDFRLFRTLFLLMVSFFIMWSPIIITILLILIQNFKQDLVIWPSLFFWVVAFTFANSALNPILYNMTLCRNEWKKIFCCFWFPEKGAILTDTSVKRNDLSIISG
Type: cell-based
Protocol: Human GPR120 stable cell line was purchased from Multispan Inc (26219 Eden Landing Road, Hayward, CA94545). This GPR120 cell line was generated in HEK293 cells co-expressing Gqi5. In this cell line, the Flag epitope tag (DYKDDDDK) was fused to the amino terminus of human GPR120 protein.
The concentration of intracellular Ca^2+ was measured as described below. Human GPR120 cells were plated in 96 well plates (Poly-D-Lysine coated black/clear Plate, Greiner Bio-One) at 70,000 cells per well and cultured overnight in conditions of 37°C and 5% CO2. A Ca^2+ assay dye stock solution was prepared by adding 10 mL of assay buffer (HBSS/20mM HEPES, pH 7.4) to FLIPR Calcium 4 Assay Bulk Kit (Molecular Devices). The 10 mL of Ca^2+ assay dye solution was prepared by further diluting 0.5 mL of Ca^2+ assay dye stock solution with 10 mL of assay buffer. The medium of the cells was removed and immediately 100 µL of the Ca^2+ assay dye solution was dispensed into each well followed by incubation at 37°C and 5% CO2 for 50 minutes to incorporate the Ca^2+ dye into the cells. The cell plate was then placed in the Flexstation (Molecular Devices) for 20 minutes at 37°C. Compounds were dissolved in 100% DMSO and diluted to desired concentrations with assay buffer and placed in the Flexstation simultaneously with the cell plate for 20 minute incubation at 37°C prior to reading. Fluorescence intensity was measured immediately following compound addition (25 µL/well) on the Flexstation at an excitation wavelength of 485 nm and an emission wavelength of 525 with 515 nm auto cutoff. The resulting increase in fluorescence intensities corresponds to increases in intracellular Ca^2+ levels.
Compounds were dissolved in 100% DMSO to a concentration of 20 mM to provide stock solutions. To determine activity against human GPR120, compounds were added with human GPR120 stably expressing cells (described above), at eight desired concentrations ranging from 0.00001 to 20 µM, in 96 well plates and fluorescence intensities were measured for 90 seconds with 2-second intervals. An EC50 value (concentration of the GPR120 agonist where 50% of the agonist's maximal activity is observed) was calculated using the changes (Max-Min) of fluorescence intensity.
To determine percent activity for a tested compound, the fluorescence intensity value obtained at a particular concentration were compared to the maximal fluorescence intensity value obtained for reference compound GW9508 (4-[[(3-phenoxyphenyl)methyl]amino]benzene propanoic acid; British Journal of Pharmacology 2006 148, 619-628) or the compound of Example 25. When GW9508 was used as the reference compound, the maximal activity of GW9508 at 6.7µM was designated as 100% activity. When the compound of Example 25 was used as the reference compound, the maximal activity of the compound of Example 25 at 2.5 µM was designated as 100% activity. Typically, the GW9508 activity reached a maximum at a concentration of approximately 6.7 µM and typically the compound of Example 25 reached a maximum activity at approximately 2.5µM. […]
In the case of `CC1(C)Cc2cc(Cl)cc(COc3ccc(CCC(=O)O)c(-c4ccccc4)c3)c2O1` [Example 71, 3-(5-((5-chloro-2,2-dimethyl-2,3-dihydrobenzofuran-7-yl)methoxy)-[1,1'-biphenyl]-2-yl)propanoic acid], the activity at 2.5 µM is reported as 134%. Work on `CCCc1cc(OCc2cc(Cl)cc3c2OC(C)(C)C3)c(F)cc1CCC(=O)O` [Example 73, 3-(4-((5-chloro-2,2-dimethyl-2,3-dihydrobenzofuran-7-yl)methoxy)-5-fluoro-2-propylphenyl)propanoic acid] yielded an activity at 2.5 µM of 115%. `CC(Cc1ccc(OCc2cc(Cl)cc3c2OC(C)(C)C3=O)c(C(F)(F)F)c1)C(=O)O` (stereo not drawn) [Example 79, 3-(4-((5-chloro-2,2-dimethyl-3-oxo-2,3-dihydrobenzofuran-7-yl)methoxy)-3-(trifluoromethyl)phenyl)-2-methylpropanoic acid] was tested, and the activity at 2.5 µM was 3.85%. Compound `CC(Cc1ccc(OCc2cc(Cl)cc3c2OC(C)(C)C3O)c(F)c1)C(=O)O` (stereo not drawn) [Example 80, 3-(4-((5-chloro-3-hydroxy-2,2-dimethyl-2,3-dihydrobenzofuran-7-yl)methoxy)-3-fluorophenyl)-2-methylpropanoic acid] has an activity at 2.5 µM of 86.2%. For `CC(Cc1ccc(OCc2cc(-c3ccc(Cl)cc3)cc3c2OC(C)(C)C3)cc1)C(=O)O` (stereo not drawn) [Example 82, 3-(4-((5-(4-chlorophenyl)-2,2-dimethyl-2,3-dihydrobenzofuran-7-yl)methoxy)phenyl)-2-methylpropanoic acid], the activity at 2.5 µM was 24%. Work on `COc1cccc(-c2cc(COc3ccc(CC(C)C(=O)O)cc3)c3c(c2)CC(C)(C)O3)c1` (stereo not drawn) [Example 86, 3-(4-((5-(3-methoxyphenyl)-2,2-dimethyl-2,3-dihydrobenzofuran-7-yl)methoxy)phenyl)-2-methylpropanoic acid] yielded an activity at 2.5 µM of 5.23%. `CC(Cc1ccc(OCc2cc(Cl)cc3c2OC(C)(C)C3)c(CN(C)C)c1)C(=O)O` (stereo not drawn) [Example 88, 3-(4-((5-chloro-2,2-dimethyl-2,3-dihydrobenzofuran-7-yl)methoxy)-3-((dimethylamino)methyl)phenyl)-2-methylpropanoic acid] showed an activity at 2.5 µM of 119%. `CCN(CC)c1cc(COc2ccc(CC(C)C(=O)O)cc2)c2c(c1)CC(C)(C)O2` (stereo not drawn) [Example 89, 3-(4-((5-(diethylamino)-2,2-dimethyl-2,3-dihydrobenzofuran-7-yl)methoxy)phenyl)-2-methylpropanoic acid] was tested, and the activity at 2.5 µM was 82.3%. In the case of `CC(Cc1ccc(OCc2cc(-n3cnnn3)cc3c2OC(C)(C)C3)cc1)C(=O)O` (stereo not drawn) [Example 90, 3-(4-((2,2-dimethyl-5-(1H-tetrazol-1-yl)-2,3-dihydrobenzofuran-7-yl)methoxy)phenyl)-2-methylpropanoic acid], the activity at 2.5 µM is reported as 75.9%. In the case of `CC(Cc1ccc(OCc2ccc(F)c3c2CC(C)(C)O3)cc1)C(=O)O` (stereo not drawn) [Example 91, 3-(4-((7-fluoro-2,2-dimethyl-2,3-dihydrobenzofuran-4-yl)methoxy)phenyl)-2-methylpropanoic acid], the activity at 2.5 µM is reported as 121%. Compound `CC1(C)Cc2c(COc3ccc4c(c3)CCC4CC(=O)O)ccc(F)c2O1` (stereo not drawn) [Example 94, 2-(5-((7-fluoro-2,2-dimethyl-2,3-dihydrobenzofuran-4-yl)methoxy)-2,3-dihydro-1H-inden-1-yl)acetic acid] has an activity at 2.5 µM of 98.5%. Compound `CC(Cc1ccc(OCc2c(F)ccc3c2CC(C)(C)O3)cc1)C(=O)O` (stereo not drawn) [Example 96, 3-(4-((5-fluoro-2,2-dimethyl-2,3-dihydrobenzofuran-4-yl)methoxy)phenyl)-2-methylpropanoic acid] has an activity at 2.5 µM of 125%. `CC1(C)Cc2c(ccc(F)c2COc2c(F)cc(C3CC3C(=O)O)cc2F)O1` (stereo not drawn) [Example 99, 2-(3,5-difluoro-4-((5-fluoro-2,2-dimethyl-2,3-dihydrobenzofuran-4-yl)methoxy)phenyl)cyclopropanecarboxylic acid] was tested, and the activity at 2.5 µM was 102%. For `Cc1cc(OCC(=O)O)ccc1OCc1cc(Cl)cc2c1OC(C)(C)C2` [Example 103, 2-(4-((5-chloro-2,2-dimethyl-2,3-dihydrobenzofuran-7-yl)methoxy)-3-methylphenoxy)acetic acid], the activity at 2.5 µM was 99%. `CC(CC(=O)O)c1cc(F)c(OCc2cc(Cl)cc3c2OC(C)(C)C3)c(F)c1` (stereo not drawn) [Example 106, 3-(4-((5-chloro-2,2-dimethyl-2,3-dihydrobenzofuran-7-yl)methoxy)-3,5-difluorophenyl)butanoic acid] was tested, and the activity at 2.5 µM was 155%. `COc1cc(COc2ccc(CC(C)C(=O)O)cc2)c2c(c1)CC(C)(C)O2` (stereo not drawn) [Example 108, 3-(4-((5-methoxy-2,2-dimethyl-2,3-dihydrobenzofuran-7-yl)methoxy)phenyl)-2-methylpropanoic acid] was tested, and the activity at 2.5 µM was 144%. `CC(Cc1cc(F)c(OCc2cc(Cl)cc3c2OC(C)C3(C)C)c(F)c1)C(=O)O` (stereo not drawn) [Example 109, 3-(4-((5-chloro-2,3,3-trimethyl-2,3-dihydrobenzofuran-7-yl)methoxy)-3,5-difluorophenyl)-2-methylpropanoic acid] was tested, and the activity at 2.5 µM was 72.4%. For `CC(Cc1cc(F)c(OCc2cc(OCc3ccccc3)cc3c2OC(C)(C)C3)c(F)c1)C(=O)O` (stereo not drawn) [Example 111, 3-(4-((5-(benzyloxy)-2,2-dimethyl-2,3-dihydrobenzofuran-7-yl)methoxy)-3,5-difluorophenyl)-2-methylpropanoic acid], the activity at 2.5 µM was 51.5%. `CC1(C)Cc2cc(Cl)cc(COc3ccc4c(c3)CC(C(=O)O)C4)c2O1` (stereo not drawn) [Example 112, 5-((5-chloro-2,2-dimethyl-2,3-dihydrobenzofuran-7-yl)methoxy)-2,3-dihydro-1H-indene-2-carboxylic acid] showed an activity at 2.5 µM of 115%. Work on `CC1(C)Cc2cc(F)cc(COc3ccc4cc(C(=O)O)ccc4c3)c2O1` [Example 114, 6-((5-fluoro-2,2-dimethyl-2,3-dihydrobenzofuran-7-yl)methoxy)-2-naphthoic acid] yielded an activity at 2.5 µM of 124%. `CC(C)Oc1cc(OCc2cc(F)cc3c2OC(C)(C)C3)ccc1CCC(=O)O` [Example 115, 3-(4-((5-fluoro-2,2-dimethyl-2,3-dihydrobenzofuran-7-yl)methoxy)-2-isopropoxyphenyl)propanoic acid] showed an activity at 2.5 µM of 152%. With `CC(C)Oc1cc(OCc2cc(Cl)cc3c2OC(C)(C)C3)ccc1CCC(=O)O` [Example 116, 3-(4-((5-chloro-2,2-dimethyl-2,3-dihydrobenzofuran-7-yl)methoxy)-2-isopropoxyphenyl)propanoic acid] the activity at 2.5 µM was 146%. `Cc1cc2cc(Cl)cc(COc3ccc(CC(C)C(=O)O)cc3F)c2o1` (stereo not drawn) [Example 120, 3-(4-((5-chloro-2-methylbenzofuran-7-yl)methoxy)-3-fluorophenyl)-2-methylpropanoic acid] was tested, and the activity at 2.5 µM was 104%. For `CN(C)Cc1cc(OCc2cc(F)cc3c2OC(C)(C)C3)ccc1CCC(=O)O` [Example 122, 3-(2-((dimethylamino)methyl)-4-((5-fluoro-2,2-dimethyl-2,3-dihydrobenzofuran-7-yl)methoxy)phenyl)propanoic acid], the activity at 2.5 µM was 3.58%. In the case of `CC(=O)Nc1cc(COc2ccc(CC(C)C(=O)O)cc2)c2c(c1)CC(C)(C)O2` (stereo not drawn) [Example 123, 3-(4-((5-acetamido-2,2-dimethyl-2,3-dihydrobenzofuran-7-yl)methoxy)phenyl)-2-methylpropanoic acid], the activity at 2.5 µM is reported as 47%.

Same assay, conditions: eight concentrations from 0.00001 to 20 µM; changes (Max-Min) of fluorescence intensity
For `CC(Cc1ccc(OCc2cc(Cl)cc3c2OC(C)(C)C3O)c(F)c1)C(=O)O` (stereo not drawn) [Example 80, 3-(4-((5-chloro-3-hydroxy-2,2-dimethyl-2,3-dihydrobenzofuran-7-yl)methoxy)-3-fluorophenyl)-2-methylpropanoic acid], the EC50 was 1000 to 10000 nM. In the case of `CC(Cc1ccc(OCc2cc(Br)cc3c2OC(C)(C)C3)cc1)C(=O)O` (stereo not drawn) [Example 81, 3-(4-((5-bromo-2,2-dimethyl-2,3-dihydrobenzofuran-7-yl)methoxy)phenyl)-2-methylpropanoic acid], the EC50 is reported as at most 1000 nM. `CC(Cc1ccc(OCc2cc(-c3ccc(Cl)cc3)cc3c2OC(C)(C)C3)cc1)C(=O)O` (stereo not drawn) [Example 82, 3-(4-((5-(4-chlorophenyl)-2,2-dimethyl-2,3-dihydrobenzofuran-7-yl)methoxy)phenyl)-2-methylpropanoic acid] showed an EC50 of 1000 to 10000 nM. `CC(Cc1cc(F)c(OCc2cc(OCc3ccccc3)cc3c2OC(C)(C)C3)c(F)c1)C(=O)O` (stereo not drawn) [Example 111, 3-(4-((5-(benzyloxy)-2,2-dimethyl-2,3-dihydrobenzofuran-7-yl)methoxy)-3,5-difluorophenyl)-2-methylpropanoic acid] was tested, and the EC50 was 1000 to 10000 nM. `CC(=O)Nc1cc(COc2ccc(CC(C)C(=O)O)cc2)c2c(c1)CC(C)(C)O2` (stereo not drawn) [Example 123, 3-(4-((5-acetamido-2,2-dimethyl-2,3-dihydrobenzofuran-7-yl)methoxy)phenyl)-2-methylpropanoic acid] gave an EC50 of 1000 to 10000 nM.
